In paper PMC5513037, “Examining the influence of specificity ligands and ATP-competitive ligands on the overall effectiveness of bivalent kinase inhibitors” (Proteome Science, 2017):

Columns and labels:
Assay in all cases: KAM-matrix competition in K562 lysate;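 for 0.001 uM KAM: median log10 fold change of treatment over DMSO control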;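 for 0.01 uM KAM: median log10 fold change of treatment over DMSO control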;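 for 0.1 uM KAM: median log10 fold change of treatment over DMSO control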;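 for 1 uM KAM: median log10 fold change of treatment over DMSO control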;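 for 10 uM KAM: median log10 fold change of treatment over DMSO control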
Assay type in all cases: binding
[1] = target: T1, ADRBK1 (Homo sapiens, UniProt P25098);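 for 0.001 uM KAM: median log10 fold change of treatment over DMSO control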;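 for 0.01 uM KAM: median log10 fold change of treatment over DMSO control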;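 for 0.1 uM KAM: median log10 fold change of treatment over DMSO control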;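 for 1 uM KAM: median log10 fold change of treatment over DMSO control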;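 for 10 uM KAM: median log10 fold change of treatment over DMSO control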
T1 construct: endogenous in cells; host or cells: K562
T1 sequence (P25098 1-689): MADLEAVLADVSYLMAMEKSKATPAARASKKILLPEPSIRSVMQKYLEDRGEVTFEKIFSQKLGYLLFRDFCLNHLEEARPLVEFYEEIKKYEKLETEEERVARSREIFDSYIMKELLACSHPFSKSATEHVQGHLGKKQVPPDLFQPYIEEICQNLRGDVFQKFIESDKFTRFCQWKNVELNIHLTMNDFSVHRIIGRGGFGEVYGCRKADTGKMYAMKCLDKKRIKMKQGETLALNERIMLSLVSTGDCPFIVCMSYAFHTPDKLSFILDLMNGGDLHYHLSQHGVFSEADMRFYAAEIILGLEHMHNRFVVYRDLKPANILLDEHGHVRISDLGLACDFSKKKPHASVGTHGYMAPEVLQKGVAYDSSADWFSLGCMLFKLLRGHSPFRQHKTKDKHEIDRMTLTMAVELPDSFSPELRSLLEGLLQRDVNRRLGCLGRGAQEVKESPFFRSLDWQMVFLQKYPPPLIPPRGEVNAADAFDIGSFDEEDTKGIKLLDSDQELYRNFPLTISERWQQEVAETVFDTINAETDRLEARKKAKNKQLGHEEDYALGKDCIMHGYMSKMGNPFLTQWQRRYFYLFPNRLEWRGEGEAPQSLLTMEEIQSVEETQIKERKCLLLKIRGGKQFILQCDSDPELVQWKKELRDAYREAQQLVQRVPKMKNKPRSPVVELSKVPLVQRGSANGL
Description: (§1) Supplement 12953_2017_125_MOESM1_ESM.zip/MS_Supp Info.xlsx, sheet "KAM" | column: 10 uM KAM; 1 uM KAM; 0.1 uM KAM; 0.01 uM KAM; 0.001 uM KAM; RB50

[2] = target: T2, MAP3K6 (Homo sapiens, UniProt O95382)
T2 construct: endogenous in cells; host or cells: K562
T2 sequence (O95382 1-1288): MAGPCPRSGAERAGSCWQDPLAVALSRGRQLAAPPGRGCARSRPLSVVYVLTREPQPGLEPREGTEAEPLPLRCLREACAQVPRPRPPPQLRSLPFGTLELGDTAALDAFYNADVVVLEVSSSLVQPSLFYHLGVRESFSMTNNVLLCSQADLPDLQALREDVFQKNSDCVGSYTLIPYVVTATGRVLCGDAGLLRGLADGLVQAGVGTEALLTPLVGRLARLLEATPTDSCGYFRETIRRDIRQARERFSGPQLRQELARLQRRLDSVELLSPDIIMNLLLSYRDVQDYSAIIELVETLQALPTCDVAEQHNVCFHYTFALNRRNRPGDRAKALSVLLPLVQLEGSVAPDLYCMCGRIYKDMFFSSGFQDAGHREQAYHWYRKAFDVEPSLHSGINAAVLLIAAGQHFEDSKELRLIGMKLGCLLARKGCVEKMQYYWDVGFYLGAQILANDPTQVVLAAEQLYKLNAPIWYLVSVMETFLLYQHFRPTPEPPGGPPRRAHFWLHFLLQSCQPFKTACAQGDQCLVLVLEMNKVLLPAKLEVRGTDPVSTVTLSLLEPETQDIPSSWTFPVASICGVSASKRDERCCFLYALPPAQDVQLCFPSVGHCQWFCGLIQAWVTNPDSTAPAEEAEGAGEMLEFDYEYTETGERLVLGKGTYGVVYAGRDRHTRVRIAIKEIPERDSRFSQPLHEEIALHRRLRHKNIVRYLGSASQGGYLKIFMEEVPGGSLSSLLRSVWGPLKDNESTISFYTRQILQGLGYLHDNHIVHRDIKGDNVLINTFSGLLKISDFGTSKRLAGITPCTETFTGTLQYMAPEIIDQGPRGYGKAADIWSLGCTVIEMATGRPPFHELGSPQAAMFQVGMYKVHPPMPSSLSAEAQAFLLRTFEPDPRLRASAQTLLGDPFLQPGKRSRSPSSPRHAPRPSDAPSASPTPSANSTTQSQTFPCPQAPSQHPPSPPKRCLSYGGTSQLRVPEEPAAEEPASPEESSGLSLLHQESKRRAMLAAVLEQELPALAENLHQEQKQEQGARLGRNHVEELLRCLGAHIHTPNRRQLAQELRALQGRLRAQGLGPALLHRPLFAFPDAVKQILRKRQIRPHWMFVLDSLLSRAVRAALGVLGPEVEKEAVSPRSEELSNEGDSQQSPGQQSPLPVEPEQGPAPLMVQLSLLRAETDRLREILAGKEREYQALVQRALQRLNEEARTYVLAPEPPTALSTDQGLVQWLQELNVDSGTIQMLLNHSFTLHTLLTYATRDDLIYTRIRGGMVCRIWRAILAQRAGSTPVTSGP
Description: as §1

[3] = target: T3, EIF2AK4 (Homo sapiens, UniProt Q9P2K8);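 for 0.001 uM KAM: median log10 fold change of treatment over DMSO control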;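 for 0.01 uM KAM: median log10 fold change of treatment over DMSO control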;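 for 0.1 uM KAM: median log10 fold change of treatment over DMSO control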;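 for 1 uM KAM: median log10 fold change of treatment over DMSO control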;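 for 10 uM KAM: median log10 fold change of treatment over DMSO control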
T3 construct: endogenous in cells; host or cells: K562
Description: as §1

[4] = target: T4, YES1 (Homo sapiens, UniProt P07947)
T4 construct: endogenous in cells; host or cells: K562
Description: as §1

[5] = target: T5, CDC7 (Homo sapiens, UniProt O00311);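 for 0.001 uM KAM: median log10 fold change of treatment over DMSO control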;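 for 0.01 uM KAM: median log10 fold change of treatment over DMSO control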;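 for 0.1 uM KAM: median log10 fold change of treatment over DMSO control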;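 for 1 uM KAM: median log10 fold change of treatment over DMSO control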;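 for 10 uM KAM: median log10 fold change of treatment over DMSO control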
T5 construct: endogenous in cells; host or cells: K562 lysate
Description: as §1

[6] = KAM 0.001-10 uM, read-out: RB50 (the source's name)
[7] = read-out: RB50 (the source's name)

**Q.** For `N#CCc1ccc(Nc2nc(NCCCN)cc(Nc3cc(C4CC4)[nH]n3)n2)cc1` [KAM], which IC50 [1, 6] is on record?
**A.** Its IC50 is > 10 µM.

**Q.** And the “0.001 uM KAM” value ([1]; relative to 0 uM KAM = 0)?
**A.** Its value is 0.02352.

**Q.** And the “0.01 uM KAM” value ([1]; relative to 0 uM KAM = 0)?
**A.** The value was 0.07327.

**Q.** What about the “0.1 uM KAM” value ([1]; relative to 0 uM KAM = 0) of the same molecule?
**A.** Its value is 0.03347.

**Q.** And the “1 uM KAM” value ([1]; relative to 0 uM KAM = 0)?
**A.** The value was 0.04428.

**Q.** And the “10 uM KAM” value ([1]; relative to 0 uM KAM = 0)?
**A.** Its value is 0.02417.

**Q.** What about the “median Log10 fold change” value ([2]; 0.001 uM KAM) of the same molecule?
**A.** The value was -0.04109.

**Q.** What about the “median Log10 fold change” value ([2]; 0.01 uM KAM) of the same molecule?
**A.** Its value is -0.01116.

**Q.** What about the “median Log10 fold change” value ([2]; 0.1 uM KAM) of the same molecule?
**A.** Its value is -0.09429.

**Q.** And the “median Log10 fold change” value ([2]; 1 uM KAM)?
**A.** Its value is -0.1699.

**Q.** What about the “median Log10 fold change” value ([2]; 10 uM KAM) of the same molecule?
**A.** The value was -0.3363.

**Q.** And the IC50 [2, 7]?
**A.** Its IC50 is 5.37 µM.

**Q.** What about the IC50 [3, 6] of the same molecule?
**A.** The IC50 was > 10 µM.

**Q.** And the “0.001 uM KAM” value ([3]; relative to 0 uM KAM = 0)?
**A.** The value was -0.0489.

**Q.** And the “0.01 uM KAM” value ([3]; relative to 0 uM KAM = 0)?
**A.** Its value is 0.01964.

**Q.** What about the “0.1 uM KAM” value ([3]; relative to 0 uM KAM = 0) of the same molecule?
**A.** Its value is -0.07688.

**Q.** And the “1 uM KAM” value ([3]; relative to 0 uM KAM = 0)?
**A.** The value was -0.1098.

**Q.** What about the “10 uM KAM” value ([3]; relative to 0 uM KAM = 0) of the same molecule?
**A.** The value was -0.203.

**Q.** What about the “median Log10 fold change” value ([4]; 0.001 uM KAM) of the same molecule?
**A.** Its value is 0.00764.

**Q.** What about the “median Log10 fold change” value ([4]; 0.01 uM KAM) of the same molecule?
**A.** Its value is 0.01465.

**Q.** And the “median Log10 fold change” value ([4]; 0.1 uM KAM)?
**A.** The value was -0.1546.

**Q.** And the “median Log10 fold change” value ([4]; 1 uM KAM)?
**A.** Its value is -0.4462.

**Q.** What about the “median Log10 fold change” value ([4]; 10 uM KAM) of the same molecule?
**A.** The value was -0.6732.

**Q.** And the IC50 [4, 7]?
**A.** Its IC50 is 458 nM.

**Q.** What about the IC50 [5, 6] of the same molecule?
**A.** The IC50 was > 10 µM.

**Q.** What about the “0.001 uM KAM” value ([5]; relative to 0 uM KAM = 0) of the same molecule?
**A.** The value was -0.007298.

**Q.** What about the “0.01 uM KAM” value ([5]; relative to 0 uM KAM = 0) of the same molecule?
**A.** Its value is -0.03198.

**Q.** What about the “0.1 uM KAM” value ([5]; relative to 0 uM KAM = 0) of the same molecule?
**A.** The value was -0.1182.

**Q.** What about the “1 uM KAM” value ([5]; relative to 0 uM KAM = 0) of the same molecule?
**A.** Its value is -0.2032.

**Q.** And the “10 uM KAM” value ([5]; relative to 0 uM KAM = 0)?
**A.** Its value is -0.1853.
